The subject of series [1] is Jurkat cells. The series can be described thus: Jurkat apoptosis assays (TMRE, caspase 3, Annexin V, viability by flow cytometry). The series is classed as cell-based. The procedure:
(§1) Jurkat cells were routinely set up in apoptosis assays at 2×10^5/ml in RPMI with 0.5% FBS. After treatment, cells were stained either with 200 nM TMRE, 5 μl/ml NucView™ (Biotium), or Annexin V-FITC (Roche) for 15 mins prior to analysis by flow cytometry. Forward- and side-scatter properties were used to exclude debris and a ‘viable’ gate corresponding to the intact, PI negative cell population was used for fluorescence analysis. For A549, cells at 90% confluency were treated with RB compounds for 48 hrs in DMEM with 0.5% FBS. After treatment, cells were released with trypsin and then stained with NucView™ prior to analysis by flow cytometry.
In general terms: A flow cytometer gives signals particle by particle.

Series [2] deals with Jurkat cells. The series can be described thus: Immunoblotting of signalling and apoptosis markers in Jurkat cells. The series is classed as cell-based. The following applies: 7.5 μM, time course. On the procedure:
Jurkat cells were treated at 5×10^5/ml in RPMI with 0.5% FBS as detailed. Cells were harvested by centrifugation at 1500 g for 5 mins and washed with PBS prior to lysis in NP40 lysis buffer (10 mM Tris-HCl pH7.4, 137 mM NaCl, 10% glycerol, 1% NP40, protease inhibitor (Roche), 4 mM NaF, 2 mM Na-vanadate, 10 mM β-glycerophosphate, 1 mM Na-pyrophosphate, 1 mM Na-molybdate) for 30 minutes on ice with vortexing. The lysates were clarified at 13,000 rpm for 15 minutes at 4° C. and protein concentration determined using BCA assay (Pierce). 30-40 μg of lysate were run on to Criterion-XT 4-12% Bis-Tris gels (Bio-Rad), followed by transfer onto nitrocellulose. The filters were blocked for 30 minutes at room temperature in TNT buffer (10 mM Tris-HCl pH8, 150 mM NaCl, 0.05% Tween-20) containing blocking buffer (Roche), prior to incubation with antibodies over night. Antibodies used were from Cell Signalling; Phospho-p38 MAPK(#4571), Phospho-SAPK/JNK(81E11), Phospho-p44/42 MAP kinase (#9101), Phospho-AKT S473 (#9271), p44/42 MAP kinase (#9102), AKT (#9272), BID (#2002), caspase-3 (#9602), PARP (#9542), and Santa Cruz Biotechnology; pan 14-3-3 K19 (sc-629). Following antibody binding, filters were washed in TNT for 1 hr at room temperature, incubated with 1/12,500 anti-rabbit or anti-mouse HRP secondary antibody (Pierce) for 1 hr at room temperature and finally washed for 1 hr with TNT before incubation with Clarity western ECL reagent (Bio-Rad). Filters were exposed on a LAS 4000 imager. Blots were analysed using Multi-gauge/Colony software FUJI FILM).
For orientation: Immunoblotting shows a protein as a band on a membrane.

Series [3] concerns A549 cells. As to the kind of experiment: A549 cell viability by MTS assay. The series is classed as cell-based, human. The following applies: 48 hrs treatment. On the procedure: A549 cells (2500/well) were plated in 96 well trays in DMEM with 0.5% FBS and cultured at 37° C. with 5% CO2 overnight. The following day RB compounds were added and cells incubated for a further 48 hours prior to removal of the medium and replacement with MTS reagent diluted 1:6 in Dulbecco's PBS. The cells were incubated at 37° C. for a further 4 hours and the conversion of MTS to the coloured formazan compound determined by measurement of absorbance at 490 nm.

Series [4] relates to A549 cells. The series can be described thus: A549 caspase-3 activation (NucView, flow cytometry). Format: cell-based, human. The following applies: 48 hrs treatment. On the procedure:
as §1

The subject of series [5] is A549 cells. As to the kind of experiment: A549 colony assay in soft agar. Format: cell-based, human. The following applies: 14 days. On the procedure: A549 cells (7500) were plated in 0.33% low-melting point agarose in DMEM with 10% FBS with and without RB compounds over a 0.5% low-melting point agarose base. Cells were incubated at 37° C. with 5% CO2 for 14 days and then colonies were photographed and analysed using Image J.

Series [6] in a line: Toxicity of daily intraperitoneal dosing in mice. The series is classed as in vivo, Balb/C nude mice. On the procedure: Finally, we studied the effects of RB-012 in vivo. To assess any potential toxic effects, Balb/C nude mice were administered RB-012, delivered in saline, daily by intra-peritoneal injection at 5 mg/kg.
Another series deals with A549 xenograft. The series can be described thus: A549 xenograft study. The series is classed as in vivo, BALB/c nude mice. On the procedure: All experimental procedures involving animals were conducted in accordance with the NHMRC Australian Code for the Care and Use of Animals for Scientific Purposes and with approval by the institutional animal ethics committee. BALB/c nude mice (Nu/Nu, female, 5-6 weeks old) were purchased from the Animal Resources Centre (Perth, Wash.) and maintained under pathogen-free conditions. A549 cells (5×106) in 100 μl PBS were injected subcutaneously into the flanks of the mice and the resulting tumour were measured using digital callipers. The tumour volume was calculated using the following formula: Volume=(larger diameter)×(small diameter)2/2. Once the tumours had reached 100 mm3, mice were divided into groups of 9 and each group administered either RB-012 in saline, FTY720 in saline or saline alone by intraperitoneal injection daily. Initially RB-12 and FTY720 were administered at 2 mg/kg for two days and then the dose was increased to 5 mg/kg for two weeks after which RB-012 was increased to 10 mg/kg but FTY720 maintained at 5 mg/kg. During this dosing regime tumours were monitored twice a week. Differences between samples were analysed using 2 way Anova and statistical significance was accepted at P<0.05.
To assess the effect of RB-012 on human lung cancer growth in vivo, A549 cells were implanted subcutaneously on the flanks of Balb/C nude mice and tumours allowed to develop until they had reached a volume of 100 mm^3. RB-012 or saline was then administered daily to assess the effect on tumour growth. Initially, to reduce the cramping and encourage tolerance, 2 mg/kg RB-012 was administered for two days and then the dose was increased to 5 mg/kg daily for two weeks. Tumour volume was monitored twice a week and after two weeks of treatment mice administered RB-012 had tumours that were 20% smaller than mice receiving saline. […] The tumours on the RB-012 treated mice continued to grow more slowly and after the third week were 30% smaller than those of saline-treated mice (P<0.05). […] Therefore we were unable to increase FTY720 dosing to match RB-012.

A further series concerns sphingosine kinases (SK). The series can be described thus: Effect on sphingosine kinase (SK) activity. The settings on record: data not shown.

SMILES strings stand for the structures. Entries after “also recorded” stand apart in the source; their conditions may differ.

The text below walks through data of US10583115B2, “Modulators of 14-3-3 functionality and uses thereof” (University of South Australia, priority 2014, dated 2020).

Broadly, the IC50 is the concentration that gives 50% inhibition. Consider `CCCCCCCCc1ccc(CC[N+]2(C)CCCCC2)cc1` [RB-012], for which, in the series on Jurkat cells [1], the “ED50 for apoptosis induction, in words” value is given as “low micromolar range”. Also, in the series with Jurkat cells [1] (5 μM, 24 hours), the “Annexin V presentation” value is given as “Annexin V presentation” and the cell viability entry is reported as “loss of viability”. In addition, the “apoptosis as determined by caspase-3 activation” value with Jurkat cells [1] (5 μM, within 5 hours) is given as “readily able to activate apoptosis”. In addition, in the series on Jurkat cells [2], the “time at which BID cleavage is detected” value stood at 3 h, the “time at which PARP cleavage is detectable” value is 2 h, the “time at which clipping of 14-3-3 protein is detectable” value amounted to 2 h and the “time to commitment to apoptosis” value lay in the range of 2 to 3 h. For the same molecule, the “cell viability / growth and survival (MTS), in words” value in the series with A549 cells [3] is “inhibited”. Moreover, in the series on A549 cells [3] (Homo sapiens, A549), the IC50 was determined as 5.5 µM. For the same molecule, the caspase-3 activation result in the series on A549 cells [4] is “induce caspase activation; also recorded: greater potency”. In the series with A549 cells [5], the “colony formation in soft agar” value is recorded as “slightly greater potency”. Besides, the “time within which cramping after injection subsided” value in series [6] (5 mg/kg daily intra-peritoneal) was in the range of 10 to 20 min. In addition, in series [6] (5 mg/kg daily intra-peritoneal in saline, 28 days), the adverse effects entry was “no adverse effects were noted with the exception of minor cramping”. In addition, the body weight result in series [6] (5 mg/kg daily intra-peritoneal, 28 days) is recorded as “unaltered”. Moreover, the “steady state haemopoiesis (blood and bone marrow samples)” value in series [6] (end of treatment period, data not shown) was “no changes were observed”. Further, the “tolerability at 10 mg/kg” value with A549 xenograft (10 mg/kg daily i.p.) is “well tolerated without adverse effects”. Further, in the series on A549 xenograft (after two weeks, 2 mg/kg for two days, then 5 mg/kg daily i.p.), the “tumours smaller than in mice receiving saline” value is on record as 20%. For the same molecule, in the series on A549 xenograft (daily i.p., 2 then 5 then 10 mg/kg), the “growth of A549 xenograft, in words” value was “retarded”. Further, in the series with sphingosine kinases (SK), the “effect on SK activity” value was “does not affect SK activity”.
